The text below walks through data of patent US6384237B1, “Pyrylium compound, process for making the same, nucleic acid stain, and labeled nucleic acid” (Canon Kabushiki Kaisha, priority 1999, dated 2002).

Experiment [1] has as its system salmon sperm DNA. Description: Absorption spectrophotometry of the pyrylium compound free and mixed with salmon sperm DNA. The experiment is classed as binding. The following applies: DNA 50 μg/ml, compound 3×10^−5 M, 10 mM phosphate buffer pH 7.0. How it is done:
Compound 3 prepared in Example 1 (2-(3-carboxypropyl)-4,6-bis(4-N,N-dimethylaminophenyl)pyrylium iodide) was dissolved into a 10 mM phosphate buffer solution (pH 7.0) to prepare Solution IA. A fraction of Solution IA was diluted to a final concentration of 3×10^−5 M, and the diluted solution was subjected to absorption spectrophotometry. The absorption spectrum is denoted by (A) in FIG. 1.
A DNA solution was prepared using salmon sperm DNA (mfd. by Sigma-Aldrich Co.) which was adequately purified according to a conventional method. A fraction of the DNA solution and a fraction of Solution IA were mixed to prepare Solution IB in which the final DNA concentration was 50 μg/ml and the final concentration of Compound 3 was 3×10^−5 M. A fraction of Solution IB was subjected to absorption spectrophotometry. The absorption spectrum is denoted by (B) in FIG. 1.
With reference to spectrum (A) of Compound 3 and spectrum (B) of Solution IB in FIG. 1, the absorption bands of Solution IB are shifted to longer wavelengths by 30 nm and absorbance is decreased due to interaction between Compound 3 and the DNA. These changes can be attributed to the intercalative characteristics of Compound 3.
Compound 6 prepared in Example 3 (2-(2-carboxyethyl)-4,6-bis(4-N,N-dimethylaminophenyl)pyrylium iodide) was dissolved into a 10 mM phosphate buffer solution (pH 7.0) to prepare Solution IIA. A fraction of Solution IIA was diluted to a final concentration of 3×10^−5 M, and the diluted solution was subjected to absorption spectrophotometry. The absorption spectrum is denoted by (A) in FIG. 4.
A DNA solution was prepared using salmon sperm DNA (Sigma-Aldrich Co.) which was adequately purified according to a conventional method. A fraction of the DNA solution and a fraction of Solution IIA were mixed to prepare Solution IIB in which the final DNA concentration was 50 μg/ml and the final concentration of Compound 6 was 3×10^−5 M. A fraction of Solution IIB was subjected to absorption spectrophotometry. The absorption spectrum is denoted by (B) in FIG. 4.
With reference to spectrum (A) of Compound 6 and spectrum (B) of Solution IIB in FIG. 4, the absorption bands of Solution IIB are shifted to longer wavelengths by 30 nm and absorbance is decreased due to interaction between Compound 6 and the DNA. These changes can be attributed to intercalative characteristics of Compound 6.

The test system of experiment [2] is salmon sperm DNA. As to the kind of experiment: Spectrofluorimetry of the pyrylium compound with and without salmon sperm DNA. Type of experiment: binding. The conditions noted are these: excitation 550 nm; for fluorescence of solution not containing DNA: no DNA; for fluorescence wavelength of solution containing DNA (fluoresces intensely): with salmon sperm DNA. The method, then: A fraction of Solution IA and a fraction of Solution IB were diluted so that the concentration of Compound 3 was the same in these diluted solutions. The diluted solutions were subjected to conventional spectrofluorimetry by excitation light having a wavelength of 550 nm.
A fraction of Solution IIA and a fraction of Solution IIB were diluted so that the concentration of Compound 6 was the same in these diluted solutions. The diluted solutions were subjected to conventional spectrofluorimetry by excitation light having a wavelength of 550 nm.

For `CN(C)c1ccc(-c2cc(CCCC(=O)O)[o+]c(-c3ccc(N(C)C)cc3)c2)cc1.[I-]` [Compound 3, 2-(3-carboxypropyl)-4,6-bis(4-N,N-dimethylaminophenyl)pyrylium iodide], in the experiment on salmon sperm DNA [1], the “change of absorbance due to interaction with DNA” value was “decreased” and the “shift of absorption bands to longer wavelengths due to interaction with DNA” value was 30 nm. Also, in the experiment with salmon sperm DNA [2], the “fluorescence of solution not containing DNA” value is reported as “does not fluoresce” and the “fluorescence wavelength of solution containing DNA (fluoresces intensely)” value is roughly 640 nm.
For the compound `CN(C)c1ccc(-c2cc(CCC(=O)O)[o+]c(-c3ccc(N(C)C)cc3)c2)cc1.[I-]` [Compound 6, 2-(2-carboxyethyl)-4,6-bis(4-N,N-dimethylaminophenyl)pyrylium iodide], in the experiment on salmon sperm DNA [1], the “change of absorbance due to interaction with DNA” value is listed as “decreased” and the “shift of absorption bands to longer wavelengths due to interaction with DNA” value turned out to be 30 nm. In the experiment with salmon sperm DNA [2], the “fluorescence of solution not containing DNA” value is given as “does not fluoresce” and the “fluorescence wavelength of solution containing DNA (fluoresces intensely)” value is roughly 640 nm.
